Data on six molecules can be found in patent publication US7115556B2, “Use of anti-prolactin agents to treat proliferative conditions” (Greenville Hospital System, priority 1998, dated 2006).

Experiment [1] relates to T47-D human breast cancer cells. Briefly: 96 well cell proliferation assay with conditioned media (MTS-PMS). It counts as cell-based. The protocol:
HPRLG129R Conditioned Media. The assay conditions were modified from that described by Ginsburg and Vonderharr (1995, Cancer Res. 55:2591–2595). T47-D cells were trypsinized and passed into 96 well plates in RPMI-1640 media containing 1% DCC-FCS in a volume of 100 μl/well. The optimal cell number/well for each cell line was pre-determined after titration assay. For T47-D cells, 15,000 cells/well were plated. The cells were allowed to settle and adhere overnight (12–18 hours) and subsequently various concentrations of either hPRL, hRPL-G129R, E2 or 4-OH-Tamoxifen in a total volume of 100 μl of culture media were added. Purified hPRL (kindly provided by Dr. Parlow, National Hormone & Pituitary Program, NIH) was used as a positive control for hPRL produced from stable L cells. Cells were incubated for an additional 96 hours at 37° C. in a humidified 5% CO2 incubator. After incubation, MTS-PMS solution (Cell Titer 96 Aqueous kit, Promega Corp.) was added to each well, following the manufacturer's instructions. Plates were read at 490 nm using a BIO-RAD benchmark microplate reader. The experiments were carried out in triplicates and repeated three to six times for each cell line.

Experiment [2] deals with T-47D human breast cancer cells. Briefly: TUNEL assay, T-47D. It counts as cell-based. The method, then:
(§1) Cell Culture. T-47D cells obtained from ATCC were grown in RPMI 1640 (phenol red free), supplemented with 10% FBS (GIBCO BRL). BT-474 cells were grown in RPMI 1640 medium (phenol red free) supplemented with 10% FBS and ATCC recommended supplements. MCF-7 cells were grown in DMEM medium (phenol red free), supplemented with 10% FBS. The cells were grown at 37° C. in a humid atmosphere in the presence of 5% CO2. The MDA-MB-134 cells were grown in Leibovitz's L-15 medium supplemented with 20% FBS and grown in CO2 free atmosphere. The breast cancer cells were trypsinized (0.02% Trypsin—EDTA) and grown in their respective media (phenol red free) supplemented with 10% CSS (Charcoal stripped serum) for a week. Subsequently the cells were trypsinized again and plated onto an 8 chambered slide system (Lab Tek II) at a confluence of 60–70% per chamber. The next day treatments were performed on the breast cancer cells using their respective media(phenol red free), supplemented with 1% CSS. The MDA-MB-134 VI cells were grown in phenol red containing medium, but with the same serum conditions as the other breast cancer cells.
(§2) Terminal deoxynucleotidly transferase mediated dUTP nick end labeling (TUNEL) assay. Nicks of the fragmented DNA are labeled at their 3-OH ends. The fluorescein-labeled dUTP is incorporated at the 3-OH ends by using the enzyme terminal deoxynucleotidyl transferase. After the assigned period of treatment the chambers were dismantled as per the manufacturer's instructions and the TUNEL assay (Apoptosis detection system, Fluorescein- Promega) was performed as per the manufacturer's instructions. The slide was examined under a FITC filter using an Olympus IX 70 microscope system.

Another experiment deals with BT-474 cells. Briefly: TUNEL assay, BT-474. The experiment is classed as cell-based, human. The note with it: 4-OH-Tamoxifen 1 μM, 24 hours. The protocol:
as §1, §2

In the next experiment the test system is MCF-7 cells. Briefly: TUNEL assay, MCF-7. The experiment is classed as cell-based, human. As to conditions: 4-OH-Tamoxifen 1 μM, 24 hours. The method, then:
as §1
Terminal deoxynucleotidly transferase mediated dUTP nick end labeling (TUNEL) assay. Nicks of the fragmented DNA are labeled at their 3-OH ends. The fluorescein-labeled dUTP is incorporated at the 3-OH ends by using the enzyme terminal deoxynucleotidyl transferase. […]

For experiment [3], the system named is T47D human breast cancer cells. Briefly: Cell proliferation assay, cell counting. It counts as cell-based. As to conditions: for proliferation of T47D cells relative to untreated control cultures: FIGS. 5A-B; for shape of dose response curve, T-47D cell number: FIG. 4. The protocol: Cell proliferation assays. hPRLA was tested for its ability to inhibit breast cancer cell proliferation in tissue culture. The human breast cancer cells were grown in corresponding culture media according to ATCC recommendations. Cells were maintained at 37° C. in a humidified atmosphere of 5% CO2 in air. The assay conditions were essentially as described by Ginsburg and Vonderharr (1995, Cancer Res. 55:2591–2595). For individual growth experiments, cells were plated in 12 well culture plates at a density of approximately 2×10^4 /ml, 1 ml/ well. Cells were then allowed to attach for one day (T-47D, MCF-7, HTB19, and HTB20 cells, except for HTB 123, which is a suspension cells), then the overlying media was removed and changed to serum-free conditions with media containing ITS^+ (insulin-transferring-selenium-BSA-linoleic acid culture supplement; Collaborative Research Bedford, Mass.). Varying concentrations of hPRL alone or in combination with hPRLA were introduced. After an additional three days in culture, cells were harvested after brief trypsinization and counted in a cell counter.

Experiment [4] has as its system tyrosine phosphorylation of STAT protein. As to conditions: literature; cited from earlier work.
For experiment [5], the system named is hGH receptor on T-47D and HTB123 cells. Briefly: Competitive radioreceptor binding assay. As to conditions: T-47D and HTB123 compared to leukemia, lymphoma and retinoblastoma cells. Details: species or system human.
Experiment [6] concerns tyrosine phosphorylation of STAT5 protein in T-47D human breast cancer cells. Briefly: hPRL induction of tyrosine phosphorylation of STAT5 protein (Example 8). It counts as cell-based. As to conditions: T-47D cells, 5 nM of hormone alone, Western blot FIG. 3. The text has this: Assay of hPRL induction of tyrosine phosphorylation of STAT5 protein. […] Tyrosyl phosphorylation of STAT 5 is a receptor mediated event and is thought to be an important step in ligand-induced signal transduction (Wakao et al., 1994, EMBO J. 13: 2182–2191; Kazansky et al., 1995, Mol. Endocrinol. 9:1598–1609; Waxman et al., 1995, J. Biol. Chem. 270:13262–13270). This assay was used to evaluate the ability of hPRL and hPRLA to inhibit induction of STAT 5 phosphorylation by wild type PRL.
Briefly, human breast cancer cells were plated in 12-well plates. After pre-incubation in serum-free DMEM for 2–3 hours, the cells were exposed to various concentration of hPRL and hPRLA in serum-free DMEM. The cells were incubated for 15 min at 37° C., washed once with PBS, and lysed in 300 μl lysis buffer (50 mM Tris-HCl, pH 6.8, 1% SDS, 1% β-mecaptoethanol, 0.1M DTT, 5% Sucrose, 100 uM Sodium Orthovanadate, and 0.6% bromphenol blue). Thirty microliters of cell lysates were subjected to 4–12.5% SDS-PAGE and immunoblot analysis using horse radish peroxidase (HRP)-conjugated anti-phosphotyrosine antibody PY20 and ECL reagent kit (Amersham, Ill.). Blots were then exposed to X-ray films and developed using standard procedures (Kodak, Rochester, N.Y.). This assay has been described in Chen et al., 1994, J. Biol. Chem. 269: 15892–15897; Chen et al., 1995, Endocrinol. 136:660–667; Wang et al., 1994, Proc. Natl. Acad. Sci. U.S.A. 91:1391–1395; Chen et al., 1995, Mol. Endocrinol. 9(3):292–302; Harding et al., 1996, J. Biol. Chem. 271(12):6708–6712.
(In general: A western blot detects proteins with antibodies after separation by electrophoresis.)

Experiment [7] deals with T47D human breast cancer cells. Briefly: Mixed cell culture assay with transfected L cells, T47D. As to conditions: co-culture with transfected L cells, 24 h to five days. The experiment is classed as cell-based. The text has this:
For certain experiments, a mixed cell culture assay was used, diagramatically represented in FIG. 6. In this assay, breast cancer cells were co-cultured with expressor cells which had been transfected with nucleic acid encoding PRL or a PRL variant and expressing those recombinant proteins. By varying the number of expressor cells, the amount of PRL or PRL variant present in the mixed cell culture was increased or decreased. […] In certain wells, which served as a control, no expresser cells were added. Then, increasing numbers of expresser cells (transfected L cells expressing either HPRL (L-PRL) or hPRLA (L-PRLA)) were added to breast cancer cell-containing wells to create mixed cultures. The same numbers of expressor cells were cultured in parallel (without T47D cells) to serve as controls. After culturing under standard conditions for a period of time, the number of cells present in the wells was counted, and the number of L cells in the corresponding control culture was subtracted. The resulting number could then be compared to the number of T47D cells in the T47D control culture to evaluate the effects of the recombinant product on breast cancer cell proliferation.

On to `CC/C(=C(\c1ccc(O)cc1)c1ccc(OCCN(C)C)cc1)c1ccccc1` [4-OH-Tamoxifen, reference compound], for which, in experiment [1] (100 nM 4-OH-Tamoxifen alone), the “inhibition of cell proliferation” value came out at 15%. Also, in experiment [1] (4-OH-Tamoxifen at 500 nM, T47-D), the “maximum inhibition by a single dose” value is “approximately 15 % of control”. For the same molecule, the induction of apoptosis entry in [2] (4-OH-Tamoxifen 1 μM, 24 hours) was “did not induce apoptosis”; in the experiment on BT-474 cells, “did not induce apoptosis”; with MCF-7 cells, “did not induce apoptosis”.
As to `CC/C(=C(\c1ccccc1)c1ccc(OCCN(C)C)cc1)c1ccccc1` [tamoxifen, reference compound], in experiment [3], the “proliferation of T47D cells relative to untreated control cultures” value is “comparable inhibitory effect”.
In the case of estrogen [reference compound], the “proliferation of T47D cells relative to untreated control cultures” value in experiment [3] is given as “increased proliferation”.
As to “hGH-G120R: GH antagonist, variant of human GH with glycine at position 120 substituted with arginine”, the “effect on GH induction of STAT protein phosphorylation” value in [4] is on record as “inhibit GH induction of STAT protein phosphorylation in a dose dependent manner”.
Turning to hGH: human growth hormone, the “shape of dose response curve, T-47D cell number” value in experiment [3] is reported as “bell shaped dose response curves”. The “hGH receptor specific binding” value in experiment [5] is on record as “minimum”.

B1: hPRL: human prolactin, recombinant from transfected mouse L cells or purified from NIH (protein)
chain: LPICPGGAARCQVTLRDLFDRAVVLSHYIHNLSSEMFSEFDKRYTHGRGFITKAINSCHTSSLATPEDKEQAQQMNQKDFLSLIVSILRSWNEPLYHLVTEVRGMQEAPEAILSKAVEIEEQTKRLLEGMELIVSQVHPETKENEIYPVWSGLPSLQMADEESRLSAYYNLLHCLRRDSHKIDNYLKLLKCRIIHNNNC
For B1, the “induction of phosphorylation of STAT5 proteins” value in [6] is “induced”. Moreover, in [3], the “shape of dose response curve, T-47D cell number” value is given as “bell shaped dose response curves” and the “proliferation of T47D cells relative to untreated control cultures” value is listed as “increased proliferation”. In addition, the “T47D proliferation relative to untreated T47D cell cultures” value in experiment [7] is on record as “increase in T47D proliferation”. In addition, the “maximum response in the presence of E2 compared to hPRL alone” value in experiment [1] (hPRL 100 ng/ml with 10 nM E2) was “more than tripled”. The “maximum stimulation over basal levels” value in [1] (hPRL 250 ng/ml, single dose, four-day incubation) is listed as “approximately 20%”. Besides, the “effect on T47-D proliferation, dose response” value in experiment [1] (single dose, four-day incubation) is listed as “stimulated T47-D proliferation in a dose dependent manner”. Further, the “reversal of G129R-induced DNA fragmentation” value in experiment [2] (4:1 ratio (500 ng/ml hPRL, 125 ng/ml hPRL-G129R)) was “competitively reverse the DNA fragmentation”.
